{"source": "ChEMBL document CHEMBL3991601", "about": "“The target landscape of clinical kinase drugs” (Science, 2017)", "note": "The source made the active and inactive calls. Cut-off read from the data, not from the text of the source, for most assays here: actives have a measured Kd and inactives only a lower limit. Note: in the data inactive means no Kd found up to 30 µM.", "data": [{"target": "Cyclin-dependent kinase 6 (Homo sapiens, UniProt Q00534)", "sequence (Q00534 whole entry)": "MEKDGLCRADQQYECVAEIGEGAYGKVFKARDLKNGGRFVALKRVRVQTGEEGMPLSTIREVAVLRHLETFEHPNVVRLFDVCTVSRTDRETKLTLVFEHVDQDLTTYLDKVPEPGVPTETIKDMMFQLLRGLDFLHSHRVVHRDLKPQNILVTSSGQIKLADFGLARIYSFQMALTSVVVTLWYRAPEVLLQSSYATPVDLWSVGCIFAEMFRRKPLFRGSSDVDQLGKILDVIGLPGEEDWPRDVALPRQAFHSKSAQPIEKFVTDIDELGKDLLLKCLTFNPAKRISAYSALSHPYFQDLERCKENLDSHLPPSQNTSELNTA", "details": "not given", "values": [{"smiles": "C[C@@H](c1ccc2nccn2c1)n1nnc2ncc(-c3cnn(C)c3)nc21", "note": "[SAVOLITINIB]", "Kd": "> 30 µM (inactive)"}, {"smiles": "O=C(Nc1cccc(Cl)c1)Nc1ncc(CCNc2ncnc3ccsc23)s1", "note": "[SNS-314]", "Kd": "> 30 µM (inactive)"}, {"smiles": "Nc1nc(N)c2nc(-c3cccc(O)c3)c(-c3cccc(O)c3)nc2n1", "note": "[TG100-115]", "Kd": "> 30 µM (inactive)"}, {"smiles": "O=c1sn(-c2cccc3ccccc23)c(=O)n1Cc1ccccc1", "note": "[TIDEGLUSIB]", "Kd": "> 30 µM (inactive)"}]}, {"target": "Dual specificity tyrosine-phosphorylation-regulated kinase 1A (Homo sapiens, UniProt Q13627)", "details": "not given", "values": [{"smiles": "C[C@@H](c1ccc2nccn2c1)n1nnc2ncc(-c3cnn(C)c3)nc21", "note": "[SAVOLITINIB]", "Kd": "> 30 µM (inactive)"}, {"smiles": "O=c1sn(-c2cccc3ccccc23)c(=O)n1Cc1ccccc1", "note": "[TIDEGLUSIB]", "Kd": "> 30 µM (inactive)"}]}, {"target": "Glycogen synthase kinase-3 beta (Homo sapiens, UniProt P49841)", "sequence (P49841 whole entry)": "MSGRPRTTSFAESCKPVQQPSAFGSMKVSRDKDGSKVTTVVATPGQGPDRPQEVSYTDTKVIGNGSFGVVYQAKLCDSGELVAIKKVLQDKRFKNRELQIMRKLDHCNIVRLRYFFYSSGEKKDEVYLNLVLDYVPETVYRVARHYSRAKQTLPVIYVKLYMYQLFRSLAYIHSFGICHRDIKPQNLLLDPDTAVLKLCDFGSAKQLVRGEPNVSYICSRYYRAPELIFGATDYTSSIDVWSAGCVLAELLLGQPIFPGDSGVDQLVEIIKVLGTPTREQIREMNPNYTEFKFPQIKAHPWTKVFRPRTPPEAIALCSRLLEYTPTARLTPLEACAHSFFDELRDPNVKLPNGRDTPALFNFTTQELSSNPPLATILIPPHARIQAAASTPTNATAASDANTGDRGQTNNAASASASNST", "details": "not given", "values": [{"smiles": "CCc1cnn2c(NCc3ccc[n+]([O-])c3)cc(N3CCCC[C@H]3CCO)nc12", "note": "[DINACICLIB]", "Kd": "1.43 µM (active)"}, {"smiles": "C[C@@H](c1ccc2nccn2c1)n1nnc2ncc(-c3cnn(C)c3)nc21", "note": "[SAVOLITINIB]", "Kd": "> 30 µM (inactive)"}]}, {"target": "Mitogen-activated protein kinase 3 (Homo sapiens, UniProt P27361)", "sequence (P27361 whole entry)": "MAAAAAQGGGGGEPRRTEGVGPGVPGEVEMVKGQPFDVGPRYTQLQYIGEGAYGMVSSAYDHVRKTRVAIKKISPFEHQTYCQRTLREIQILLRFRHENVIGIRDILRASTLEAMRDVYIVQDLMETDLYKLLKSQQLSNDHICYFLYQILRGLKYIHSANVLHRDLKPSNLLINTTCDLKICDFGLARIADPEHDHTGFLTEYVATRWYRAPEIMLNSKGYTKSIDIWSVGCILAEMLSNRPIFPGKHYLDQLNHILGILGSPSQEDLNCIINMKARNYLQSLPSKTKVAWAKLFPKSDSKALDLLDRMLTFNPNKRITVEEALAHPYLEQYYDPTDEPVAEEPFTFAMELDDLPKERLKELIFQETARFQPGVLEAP", "details": "not given", "values": [{"smiles": "CCc1cnn2c(NCc3ccc[n+]([O-])c3)cc(N3CCCC[C@H]3CCO)nc12", "note": "[DINACICLIB]", "Kd": "> 30 µM (inactive)"}, {"smiles": "C[C@@H](c1ccc2nccn2c1)n1nnc2ncc(-c3cnn(C)c3)nc21", "note": "[SAVOLITINIB]", "Kd": "> 30 µM (inactive)"}, {"smiles": "O=C(Nc1cccc(Cl)c1)Nc1ncc(CCNc2ncnc3ccsc23)s1", "note": "[SNS-314]", "Kd": "> 30 µM (inactive)"}, {"smiles": "O=c1sn(-c2cccc3ccccc23)c(=O)n1Cc1ccccc1", "note": "[TIDEGLUSIB]", "Kd": "> 30 µM (inactive)"}]}, {"target": "T1, RNA cytidine acetyltransferase (Homo sapiens, UniProt Q9H0A0)", "T1 sequence (Q9H0A0 whole entry)": "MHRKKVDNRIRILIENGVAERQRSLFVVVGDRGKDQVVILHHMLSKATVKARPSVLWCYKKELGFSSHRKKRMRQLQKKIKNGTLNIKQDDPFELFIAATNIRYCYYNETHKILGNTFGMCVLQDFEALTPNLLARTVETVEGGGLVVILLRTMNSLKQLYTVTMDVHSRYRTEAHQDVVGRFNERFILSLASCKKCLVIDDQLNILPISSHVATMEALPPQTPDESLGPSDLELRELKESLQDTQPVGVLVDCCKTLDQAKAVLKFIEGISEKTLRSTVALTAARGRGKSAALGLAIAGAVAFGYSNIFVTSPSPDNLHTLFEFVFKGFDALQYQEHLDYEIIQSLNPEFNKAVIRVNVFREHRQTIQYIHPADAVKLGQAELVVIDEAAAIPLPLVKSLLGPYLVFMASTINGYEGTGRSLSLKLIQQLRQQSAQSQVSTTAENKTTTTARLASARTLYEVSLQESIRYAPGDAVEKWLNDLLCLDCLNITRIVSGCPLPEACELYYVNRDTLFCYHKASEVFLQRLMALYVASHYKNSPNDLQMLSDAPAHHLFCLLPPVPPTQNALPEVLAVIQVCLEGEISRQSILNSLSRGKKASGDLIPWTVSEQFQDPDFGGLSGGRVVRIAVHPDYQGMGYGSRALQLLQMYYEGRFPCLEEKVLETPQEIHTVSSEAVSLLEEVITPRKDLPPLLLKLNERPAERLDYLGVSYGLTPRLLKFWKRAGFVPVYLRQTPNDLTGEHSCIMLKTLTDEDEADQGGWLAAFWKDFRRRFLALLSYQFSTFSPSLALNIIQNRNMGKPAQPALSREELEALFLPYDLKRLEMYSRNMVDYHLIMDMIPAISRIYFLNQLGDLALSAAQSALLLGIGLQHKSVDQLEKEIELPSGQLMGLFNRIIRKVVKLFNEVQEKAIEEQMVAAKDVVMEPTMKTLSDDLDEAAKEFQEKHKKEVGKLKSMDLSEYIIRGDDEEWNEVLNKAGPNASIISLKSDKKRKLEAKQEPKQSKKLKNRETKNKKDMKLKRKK", "details": "not given", "values": [{"smiles": "CCc1cnn2c(NCc3ccc[n+]([O-])c3)cc(N3CCCC[C@H]3CCO)nc12", "note": "[DINACICLIB]", "Kd": "> 30 µM (inactive)"}, {"smiles": "C[C@@H](c1ccc2nccn2c1)n1nnc2ncc(-c3cnn(C)c3)nc21", "note": "[SAVOLITINIB]", "Kd": "> 30 µM (inactive)"}, {"smiles": "O=C(Nc1cccc(Cl)c1)Nc1ncc(CCNc2ncnc3ccsc23)s1", "note": "[SNS-314]", "Kd": "> 30 µM (inactive)"}, {"smiles": "Nc1nc(N)c2nc(-c3cccc(O)c3)c(-c3cccc(O)c3)nc2n1", "note": "[TG100-115]", "Kd": "> 30 µM (inactive)"}, {"smiles": "O=c1sn(-c2cccc3ccccc23)c(=O)n1Cc1ccccc1", "note": "[TIDEGLUSIB]", "Kd": "> 30 µM (inactive)"}]}, {"target": "Platelet-derived growth factor receptor beta (Homo sapiens, UniProt P09619)", "sequence (P09619 whole entry)": "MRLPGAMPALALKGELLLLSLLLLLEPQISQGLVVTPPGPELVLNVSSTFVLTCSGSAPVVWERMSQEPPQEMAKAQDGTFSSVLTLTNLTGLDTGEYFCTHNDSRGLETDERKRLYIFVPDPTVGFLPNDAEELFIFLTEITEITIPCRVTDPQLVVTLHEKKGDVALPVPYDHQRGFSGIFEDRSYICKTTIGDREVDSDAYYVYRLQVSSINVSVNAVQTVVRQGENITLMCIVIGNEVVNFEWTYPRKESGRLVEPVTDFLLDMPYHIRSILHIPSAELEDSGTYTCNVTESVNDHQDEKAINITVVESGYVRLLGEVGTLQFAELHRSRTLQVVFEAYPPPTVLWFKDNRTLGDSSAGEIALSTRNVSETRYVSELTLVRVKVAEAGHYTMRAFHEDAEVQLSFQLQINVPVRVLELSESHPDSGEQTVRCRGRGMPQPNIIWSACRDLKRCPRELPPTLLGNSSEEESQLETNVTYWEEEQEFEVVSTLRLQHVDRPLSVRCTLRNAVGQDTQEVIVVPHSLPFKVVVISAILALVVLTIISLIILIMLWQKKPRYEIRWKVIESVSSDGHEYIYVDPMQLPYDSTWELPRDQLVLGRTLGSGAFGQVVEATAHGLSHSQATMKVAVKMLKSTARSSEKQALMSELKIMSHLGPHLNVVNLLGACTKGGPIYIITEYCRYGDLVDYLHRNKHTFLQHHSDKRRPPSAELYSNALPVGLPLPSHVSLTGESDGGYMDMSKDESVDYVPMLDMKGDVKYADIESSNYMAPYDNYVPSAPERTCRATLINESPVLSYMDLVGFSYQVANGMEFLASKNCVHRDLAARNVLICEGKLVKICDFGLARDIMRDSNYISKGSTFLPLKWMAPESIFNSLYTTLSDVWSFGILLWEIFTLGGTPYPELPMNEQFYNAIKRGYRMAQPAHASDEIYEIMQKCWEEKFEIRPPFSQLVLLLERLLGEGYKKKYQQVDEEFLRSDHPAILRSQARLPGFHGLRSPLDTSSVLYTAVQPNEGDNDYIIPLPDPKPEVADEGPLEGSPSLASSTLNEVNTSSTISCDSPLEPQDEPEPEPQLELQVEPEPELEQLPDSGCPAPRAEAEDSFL", "details": "not given", "values": [{"smiles": "C[C@@H](c1ccc2nccn2c1)n1nnc2ncc(-c3cnn(C)c3)nc21", "note": "[SAVOLITINIB]", "Kd": "> 30 µM (inactive)"}, {"smiles": "O=c1sn(-c2cccc3ccccc23)c(=O)n1Cc1ccccc1", "note": "[TIDEGLUSIB]", "Kd": "> 30 µM (inactive)"}]}, {"target": "Rho-associated protein kinase 2 (Homo sapiens, UniProt O75116)", "sequence (O75116 whole entry)": "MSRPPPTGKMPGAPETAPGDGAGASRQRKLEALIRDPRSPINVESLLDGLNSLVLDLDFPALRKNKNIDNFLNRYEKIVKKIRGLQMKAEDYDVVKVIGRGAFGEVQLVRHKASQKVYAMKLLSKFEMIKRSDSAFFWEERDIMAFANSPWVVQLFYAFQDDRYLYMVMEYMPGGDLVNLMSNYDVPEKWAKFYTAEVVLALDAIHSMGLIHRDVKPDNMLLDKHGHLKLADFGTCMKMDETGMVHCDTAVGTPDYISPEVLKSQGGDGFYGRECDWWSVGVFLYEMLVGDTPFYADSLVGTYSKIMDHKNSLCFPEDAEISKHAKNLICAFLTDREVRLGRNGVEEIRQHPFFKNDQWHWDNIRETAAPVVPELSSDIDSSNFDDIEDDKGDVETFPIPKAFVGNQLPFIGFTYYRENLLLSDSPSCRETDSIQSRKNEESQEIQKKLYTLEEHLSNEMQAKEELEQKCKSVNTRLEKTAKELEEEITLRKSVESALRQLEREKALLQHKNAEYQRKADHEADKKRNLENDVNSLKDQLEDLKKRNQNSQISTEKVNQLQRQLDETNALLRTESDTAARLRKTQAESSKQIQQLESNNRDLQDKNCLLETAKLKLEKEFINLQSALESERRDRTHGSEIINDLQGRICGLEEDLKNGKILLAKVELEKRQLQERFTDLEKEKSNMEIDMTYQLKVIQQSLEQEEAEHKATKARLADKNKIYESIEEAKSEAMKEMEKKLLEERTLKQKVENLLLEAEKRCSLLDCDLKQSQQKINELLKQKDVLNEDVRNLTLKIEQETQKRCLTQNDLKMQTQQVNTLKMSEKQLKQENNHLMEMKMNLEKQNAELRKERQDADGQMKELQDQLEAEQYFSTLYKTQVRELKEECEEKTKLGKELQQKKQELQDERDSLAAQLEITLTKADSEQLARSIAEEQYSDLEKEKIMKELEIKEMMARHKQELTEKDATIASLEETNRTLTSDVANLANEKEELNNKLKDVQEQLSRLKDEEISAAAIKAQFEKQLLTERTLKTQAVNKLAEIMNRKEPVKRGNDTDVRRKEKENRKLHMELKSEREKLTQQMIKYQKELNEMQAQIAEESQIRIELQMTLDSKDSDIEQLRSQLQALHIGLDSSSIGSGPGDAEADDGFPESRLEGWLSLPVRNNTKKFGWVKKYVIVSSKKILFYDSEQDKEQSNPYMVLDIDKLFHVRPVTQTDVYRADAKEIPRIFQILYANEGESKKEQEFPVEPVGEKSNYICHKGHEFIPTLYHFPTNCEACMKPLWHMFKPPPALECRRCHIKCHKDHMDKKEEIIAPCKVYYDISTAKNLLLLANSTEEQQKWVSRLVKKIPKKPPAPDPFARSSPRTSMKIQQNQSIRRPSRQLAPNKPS", "details": "not given", "values": [{"smiles": "CCc1cnn2c(NCc3ccc[n+]([O-])c3)cc(N3CCCC[C@H]3CCO)nc12", "note": "[DINACICLIB]", "Kd": "> 30 µM (inactive)"}, {"smiles": "C[C@@H](c1ccc2nccn2c1)n1nnc2ncc(-c3cnn(C)c3)nc21", "note": "[SAVOLITINIB]", "Kd": "> 30 µM (inactive)"}, {"smiles": "O=c1sn(-c2cccc3ccccc23)c(=O)n1Cc1ccccc1", "note": "[TIDEGLUSIB]", "Kd": "> 30 µM (inactive)"}]}, {"target": "Ribosomal protein S6 kinase beta-1 (Homo sapiens, UniProt P23443)", "sequence (P23443 whole entry)": "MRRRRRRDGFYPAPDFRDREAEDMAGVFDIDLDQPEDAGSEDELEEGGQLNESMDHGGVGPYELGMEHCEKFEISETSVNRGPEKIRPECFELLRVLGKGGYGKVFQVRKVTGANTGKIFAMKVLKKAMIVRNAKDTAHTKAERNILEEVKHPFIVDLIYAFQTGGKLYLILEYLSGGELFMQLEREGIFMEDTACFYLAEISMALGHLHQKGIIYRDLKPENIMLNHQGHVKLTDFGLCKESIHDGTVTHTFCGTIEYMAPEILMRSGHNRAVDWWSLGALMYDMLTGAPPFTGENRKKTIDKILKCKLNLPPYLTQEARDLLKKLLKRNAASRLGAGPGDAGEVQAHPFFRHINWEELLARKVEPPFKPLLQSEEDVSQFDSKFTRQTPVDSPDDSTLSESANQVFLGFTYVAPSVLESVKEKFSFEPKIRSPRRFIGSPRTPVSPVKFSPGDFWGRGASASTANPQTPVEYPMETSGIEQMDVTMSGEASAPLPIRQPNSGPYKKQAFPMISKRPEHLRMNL", "details": "not given", "values": [{"smiles": "CCc1cnn2c(NCc3ccc[n+]([O-])c3)cc(N3CCCC[C@H]3CCO)nc12", "note": "[DINACICLIB]", "Kd": "> 30 µM (inactive)"}, {"smiles": "O=c1sn(-c2cccc3ccccc23)c(=O)n1Cc1ccccc1", "note": "[TIDEGLUSIB]", "Kd": "> 30 µM (inactive)"}]}, {"target": "T2, Signal recognition particle receptor subunit alpha (Homo sapiens, UniProt P08240)", "T2 sequence (P08240 whole entry)": "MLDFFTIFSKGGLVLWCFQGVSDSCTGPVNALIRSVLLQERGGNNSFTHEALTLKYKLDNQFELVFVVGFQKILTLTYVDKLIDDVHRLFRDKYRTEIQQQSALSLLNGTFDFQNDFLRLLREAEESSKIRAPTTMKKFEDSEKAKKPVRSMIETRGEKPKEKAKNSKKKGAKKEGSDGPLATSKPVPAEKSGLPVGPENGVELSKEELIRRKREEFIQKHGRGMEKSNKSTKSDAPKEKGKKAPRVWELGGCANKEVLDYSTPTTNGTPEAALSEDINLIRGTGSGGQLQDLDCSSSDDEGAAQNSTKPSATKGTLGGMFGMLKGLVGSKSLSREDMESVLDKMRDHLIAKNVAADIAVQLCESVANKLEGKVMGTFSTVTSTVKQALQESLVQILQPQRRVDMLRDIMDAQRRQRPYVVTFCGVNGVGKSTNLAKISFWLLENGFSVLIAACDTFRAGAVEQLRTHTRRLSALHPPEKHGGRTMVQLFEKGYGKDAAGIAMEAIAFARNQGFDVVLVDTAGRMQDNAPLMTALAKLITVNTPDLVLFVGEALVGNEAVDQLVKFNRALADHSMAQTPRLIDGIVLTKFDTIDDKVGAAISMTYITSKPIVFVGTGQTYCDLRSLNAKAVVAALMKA", "details": "not given", "values": [{"smiles": "CCc1cnn2c(NCc3ccc[n+]([O-])c3)cc(N3CCCC[C@H]3CCO)nc12", "note": "[DINACICLIB]", "Kd": "> 30 µM (inactive)"}, {"smiles": "C[C@@H](c1ccc2nccn2c1)n1nnc2ncc(-c3cnn(C)c3)nc21", "note": "[SAVOLITINIB]", "Kd": "> 30 µM (inactive)"}, {"smiles": "Nc1nc(N)c2nc(-c3cccc(O)c3)c(-c3cccc(O)c3)nc2n1", "note": "[TG100-115]", "Kd": "> 30 µM (inactive)"}, {"smiles": "O=c1sn(-c2cccc3ccccc23)c(=O)n1Cc1ccccc1", "note": "[TIDEGLUSIB]", "Kd": "> 30 µM (inactive)"}]}, {"target": "T3, TGF-beta receptor type-1 (Homo sapiens, UniProt P36897)", "T3 sequence (P36897 whole entry)": "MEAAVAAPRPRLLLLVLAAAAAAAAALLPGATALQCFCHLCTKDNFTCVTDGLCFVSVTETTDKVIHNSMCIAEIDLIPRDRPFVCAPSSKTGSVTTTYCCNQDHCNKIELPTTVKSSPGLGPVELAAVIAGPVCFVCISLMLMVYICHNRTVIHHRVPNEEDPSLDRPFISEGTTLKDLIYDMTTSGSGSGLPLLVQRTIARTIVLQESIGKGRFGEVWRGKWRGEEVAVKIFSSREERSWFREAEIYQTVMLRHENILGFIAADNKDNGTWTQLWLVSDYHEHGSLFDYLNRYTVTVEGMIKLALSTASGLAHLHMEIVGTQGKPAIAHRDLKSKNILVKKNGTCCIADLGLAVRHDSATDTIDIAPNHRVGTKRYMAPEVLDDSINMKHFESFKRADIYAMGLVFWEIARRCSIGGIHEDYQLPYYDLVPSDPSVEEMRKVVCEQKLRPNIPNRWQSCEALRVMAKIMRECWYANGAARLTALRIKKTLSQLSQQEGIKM", "details": "not given", "values": [{"smiles": "CCc1cnn2c(NCc3ccc[n+]([O-])c3)cc(N3CCCC[C@H]3CCO)nc12", "note": "[DINACICLIB]", "Kd": "> 30 µM (inactive)"}, {"smiles": "C[C@@H](c1ccc2nccn2c1)n1nnc2ncc(-c3cnn(C)c3)nc21", "note": "[SAVOLITINIB]", "Kd": "> 30 µM (inactive)"}, {"smiles": "O=C(Nc1cccc(Cl)c1)Nc1ncc(CCNc2ncnc3ccsc23)s1", "note": "[SNS-314]", "Kd": "> 30 µM (inactive)"}, {"smiles": "O=c1sn(-c2cccc3ccccc23)c(=O)n1Cc1ccccc1", "note": "[TIDEGLUSIB]", "Kd": "> 30 µM (inactive)"}]}, {"target": "T4, Uncharacterized protein FLJ45252 (Homo sapiens, UniProt Q6ZSR9)", "T4 sequence (Q6ZSR9 whole entry)": "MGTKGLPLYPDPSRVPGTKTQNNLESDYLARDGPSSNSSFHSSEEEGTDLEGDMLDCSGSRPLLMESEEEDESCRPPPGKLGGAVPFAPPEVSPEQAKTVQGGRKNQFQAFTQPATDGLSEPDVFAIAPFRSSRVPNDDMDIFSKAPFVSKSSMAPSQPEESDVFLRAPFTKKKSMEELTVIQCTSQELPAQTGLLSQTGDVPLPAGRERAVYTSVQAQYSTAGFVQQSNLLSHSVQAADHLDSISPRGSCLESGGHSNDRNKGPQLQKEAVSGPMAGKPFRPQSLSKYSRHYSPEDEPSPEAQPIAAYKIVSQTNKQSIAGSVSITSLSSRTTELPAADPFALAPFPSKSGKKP", "details": "read-out: Kd apparent; k-562, colo 205, sk-n-be(2) and mv-4-11", "values": [{"smiles": "C[C@@H](c1ccc2nccn2c1)n1nnc2ncc(-c3cnn(C)c3)nc21", "note": "[SAVOLITINIB]", "Kd": "> 30 µM (inactive)"}, {"smiles": "O=C(Nc1cccc(Cl)c1)Nc1ncc(CCNc2ncnc3ccsc23)s1", "note": "[SNS-314]", "Kd": "> 30 µM (inactive)"}, {"smiles": "Nc1nc(N)c2nc(-c3cccc(O)c3)c(-c3cccc(O)c3)nc2n1", "note": "[TG100-115]", "Kd": "3.01 µM (active)"}, {"smiles": "O=c1sn(-c2cccc3ccccc23)c(=O)n1Cc1ccccc1", "note": "[TIDEGLUSIB]", "Kd": "> 30 µM (inactive)"}]}]}
